# Legend:
# estrogen receptor [1] = test: estrogen receptor relative binding affinity, expanded training set of 107 compounds; details: input class, 107-compound training set
# Excerpt: The training set included weak estrogen receptor binders in addition to strong and medium estrogen receptor binders.
# For this model, strong estrogen receptor binders were defined as having log(RBA)>−0.25 and weak estrogen receptor binders were defined as having log(RBA)<−3.0. Medium estrogen receptor binders were defined as having log(RBA) in between.
# estrogen receptor [2] = details: 107-compound training set; cited from earlier work
# estrogen receptor [3] = test: estrogen receptor binding class of the 30-compound training set; details: SDAR training input endpoint class, 30 compounds
# Excerpt: Two Spectral Data-Activity Relationship (SDAR) models were established, based on ^13C NMR and EI MS spectra, for 30 estrogenic chemicals whose relative binding affinities (RBA) for the alpha (ERα) and beta (ERβ) estrogen receptors are available.
# Strong binders to the estrogen receptor were classified as having a log (RBA) over 0.0, and medium binders to the estrogen receptor were classified as having a log (RBA) of less than or equal to 0.0.
compound,measurement,setting,value
CCCCCCC=O [Heptanal],Class,estrogen receptor [1],W (weak estrogen receptor binders were defined as having log(RBA)<−3.0)
CCCCCCCCCc1ccc(O)cc1 [4-Nonylphenol],log RBA,estrogen receptor [2],−1.45
same,Class,estrogen receptor [1],M (Medium estrogen receptor binders were defined as having log(RBA) in between)
"COc1ccc(C(=O)c2ccccc2O)c(O)c1 [2,2′-Dihydroxy4-methoxybenzophene]",Class,estrogen receptor [1],W (weak estrogen receptor binders were defined as having log(RBA)<−3.0)
C#C[C@]1(O)CC[C@H]2[C@@H]3CCc4cc(O)ccc4[C@H]3CC[C@@]21C [Ethynyl estradiol],Class,estrogen receptor [1],S (strong estrogen receptor binders were defined as having log(RBA)>−0.25)
CC/C(=C(\c1ccccc1)c1ccc(OCCN(C)C)cc1)c1ccccc1 [Tamoxifen],Class Input,estrogen receptor [3],S (Strong binders to the estrogen receptor were classified as having a log (RBA) over 0.0)
same,Class,estrogen receptor [1],S (strong estrogen receptor binders were defined as having log(RBA)>−0.25)
"Oc1ccc(C=Cc2ccccc2)cc1 [Compound 4-Stilbenol, 4-Stilbenol]",Class,estrogen receptor [1],W (weak estrogen receptor binders were defined as having log(RBA)<−3.0)
C[C@]12C[C@H](O)[C@H]3[C@@H](CCC4=CC(=O)CC[C@@]43C)[C@@H]1CC[C@@H]2C(=O)CO [Corticosterone],Class,estrogen receptor [1],W (weak estrogen receptor binders were defined as having log(RBA)<−3.0)
"4,4′-Methylenebis (N,N-dimethyl)",Class,estrogen receptor [1],W (weak estrogen receptor binders were defined as having log(RBA)<−3.0)
CCC(C)(C)c1ccc(O)cc1 [4-tert-Amylphenol],log RBA,estrogen receptor [2],−3.26
O=P(Oc1ccccc1)(Oc1ccccc1)Oc1ccccc1 [Triphenylphosphate],Class,estrogen receptor [1],W (weak estrogen receptor binders were defined as having log(RBA)<−3.0)
"C(C=Cc1ccccc1)=Cc1ccccc1 [1,4-Diphenyl-1,3-butadiene]",Class,estrogen receptor [1],W (weak estrogen receptor binders were defined as having log(RBA)<−3.0)
"Clc1ccc(C(c2ccccc2Cl)C(Cl)Cl)cc1 (centres unmarked) [DDD-o,p′]",Class,estrogen receptor [1],W (weak estrogen receptor binders were defined as having log(RBA)<−3.0)
CCCCC(CC)COC(=O)c1ccccc1C(=O)OCC(CC)CCCC (centres unmarked) [BIS (2-ethylhexyl) phthalate],Class,estrogen receptor [1],W (weak estrogen receptor binders were defined as having log(RBA)<−3.0)
COc1ccc([C@@H]2CC(=O)c3c(O)cc(O)cc3O2)cc1O [Hesperetin],Class,estrogen receptor [1],W (weak estrogen receptor binders were defined as having log(RBA)<−3.0)
"C[C@]12CC[C@@H]3c4ccc(O)cc4[C@@H](O)C[C@H]3[C@@H]1CC[C@@H]2O [Estra-1,3,5(10)-trien-3,6α,17β-triol]",log RBA,estrogen receptor [2],−0.15
same,Class,estrogen receptor [1],S (strong estrogen receptor binders were defined as having log(RBA)>−0.25)
"ClC(Cl)=C(c1ccc(Cl)cc1)c1ccc(Cl)cc1 [DDE-p,p′]",Class,estrogen receptor [1],W (weak estrogen receptor binders were defined as having log(RBA)<−3.0)
C(=C(c1ccccc1)c1ccccc1)c1ccccc1 [Triphenylethylene],log RBA,estrogen receptor [2],−2.78
same,Class,estrogen receptor [1],W (weak estrogen receptor binders were defined as having log(RBA)<−3.0)
CC/C(=C(\c1ccc(O)cc1)c1ccc(OCCN(C)C)cc1)c1ccccc1 [4-OH-Tamoxifen],log RBA,estrogen receptor [2],2.24
same,Class,estrogen receptor [1],S (strong estrogen receptor binders were defined as having log(RBA)>−0.25)
"OCCCCCCCCO [1,8-Octanediol]",Class,estrogen receptor [1],W (weak estrogen receptor binders were defined as having log(RBA)<−3.0)
OCc1ccccc1 [Benzylalcohol],Class,estrogen receptor [1],W (weak estrogen receptor binders were defined as having log(RBA)<−3.0)
"CC(C)(C)c1cc(Cc2cc(C(C)(C)C)c(O)c(C(C)(C)C)c2)cc(C(C)(C)C)c1O [4,4′-Methylene(2,6-ditertbutylphenol)]",Class,estrogen receptor [1],W (weak estrogen receptor binders were defined as having log(RBA)<−3.0)
CC=Cc1ccc(O)c(OC)c1 [Isoeugenol],Class,estrogen receptor [1],W (weak estrogen receptor binders were defined as having log(RBA)<−3.0)
O=c1c(-c2ccc(O)cc2)coc2cc(O)ccc12 [Daidzein],Class,estrogen receptor [1],M (Medium estrogen receptor binders were defined as having log(RBA) in between)
CC(C)CCC[C@@H](C)[C@H]1CC[C@H]2[C@@H]3CC=C4C[C@@H](O)CC[C@]4(C)[C@H]3CC[C@]12C [Cholesterol],Class,estrogen receptor [1],W (weak estrogen receptor binders were defined as having log(RBA)<−3.0)
CCOC(=O)C=Cc1ccccc1 [Ethylcinnamate],Class,estrogen receptor [1],W (weak estrogen receptor binders were defined as having log(RBA)<−3.0)
CC12CCC(CC1)C(C)(C)O2 [Cineole],Class,estrogen receptor [1],W (weak estrogen receptor binders were defined as having log(RBA)<−3.0)
Oc1ccc(OCc2ccccc2)cc1 [4-Benzyloxyphenol],log RBA,estrogen receptor [2],−3.44
same,Class,estrogen receptor [1],W (weak estrogen receptor binders were defined as having log(RBA)<−3.0)
C=CCc1ccc(O)c(OC)c1 [Eugenol],Class,estrogen receptor [1],W (weak estrogen receptor binders were defined as having log(RBA)<−3.0)
Oc1ccc(-c2ccccc2)cc1 [4-Phenylphenol],log RBA,estrogen receptor [2],−3.04
Oc1cccc(-c2ccccc2)c1 [3-Phenylphenol],log RBA,estrogen receptor [2],−3.44
CC(C)(C)c1ccc(O)cc1 [4-tert-Butylphenol],log RBA,estrogen receptor [2],−3.61
"O=C(c1ccccc1)c1ccc(O)cc1O [2,4-Dihydroxybenzophenone]",log RBA,estrogen receptor [2],−2.61
same,Class,estrogen receptor [1],W (weak estrogen receptor binders were defined as having log(RBA)<−3.0)
CCCCCCO [Hexylalcohol],Class,estrogen receptor [1],W (weak estrogen receptor binders were defined as having log(RBA)<−3.0)
C[C@]12CCC(=O)C[C@H]1CC[C@@H]1[C@@H]2CC[C@]2(C)[C@@H](O)CC[C@@H]12 [Etiocholan-17β-ol-3-one],Class,estrogen receptor [1],W (weak estrogen receptor binders were defined as having log(RBA)<−3.0)
Oc1ccccc1Cc1ccccc1O [BIS (2-hydroxyphenyl)-methane],Class,estrogen receptor [1],W (weak estrogen receptor binders were defined as having log(RBA)<−3.0)
Oc1ccc(Cc2ccc(O)cc2)cc1 [BIS (4-hydroxyphenyl)-methane],log RBA,estrogen receptor [2],−3.02
same,Class,estrogen receptor [1],W (weak estrogen receptor binders were defined as having log(RBA)<−3.0)
O=C(O)C=Cc1ccccc1 [Cinnamic acid],Class,estrogen receptor [1],W (weak estrogen receptor binders were defined as having log(RBA)<−3.0)
"C[C@@]12CCC[C@H]1[C@@H]1CCc3cc(O)ccc3[C@H]1CC2 [Estra-1,3,5(10)-trien-3-ol]",log RBA,estrogen receptor [2],1.14
same,Class,estrogen receptor [1],S (strong estrogen receptor binders were defined as having log(RBA)>−0.25)
CCOC(=O)c1ccccc1C(=O)OCC [Diethyl phthalate],Class,estrogen receptor [1],W (weak estrogen receptor binders were defined as having log(RBA)<−3.0)
"Clc1ccc(C(c2ccc(Cl)cc2)C(Cl)(Cl)Cl)cc1 [DDT-p,p′]",Class,estrogen receptor [1],W (weak estrogen receptor binders were defined as having log(RBA)<−3.0)
COc1cc(C=O)ccc1O [Vanillin],Class,estrogen receptor [1],W (weak estrogen receptor binders were defined as having log(RBA)<−3.0)
CCC(C)(c1ccc(O)cc1)c1ccc(O)cc1 [Bisphenol B],log RBA,estrogen receptor [2],−1.07
same,Class,estrogen receptor [1],M (Medium estrogen receptor binders were defined as having log(RBA) in between)
C#C[C@]1(O)CC[C@H]2[C@@H]3CCc4cc(OC)ccc4[C@H]3CC[C@@]21C [Mestranol],RBA,estrogen receptor [2],035
same,Class,estrogen receptor [1],S (strong estrogen receptor binders were defined as having log(RBA)>−0.25)
CC(CCC(=O)O)(c1ccc(O)cc1)c1ccc(O)cc1 [Diphenolic acid],log RBA,estrogen receptor [2],−3.13
same,Class,estrogen receptor [1],W (weak estrogen receptor binders were defined as having log(RBA)<−3.0)
NCCc1ccc(O)c(O)c1 [Dopamine],Class,estrogen receptor [1],W (weak estrogen receptor binders were defined as having log(RBA)<−3.0)
CCCCOC(=O)c1ccc(N)cc1 [Butyl-4-aminobenzoate],Class,estrogen receptor [1],W (weak estrogen receptor binders were defined as having log(RBA)<−3.0)
O=C1C=CC(=C(c2ccc(O)cc2)c2ccc(O)cc2)C=C1 [Aurin],log RBA,estrogen receptor [2],−1.49
same,Class,estrogen receptor [1],M (Medium estrogen receptor binders were defined as having log(RBA) in between)
"Clc1ccc(C(c2ccc(Cl)cc2)C(Cl)Cl)cc1 [DDD-p,p′]",Class,estrogen receptor [1],W (weak estrogen receptor binders were defined as having log(RBA)<−3.0)
CCCCOC(=O)c1ccccc1C(=O)OCCCC [Dibutyl phthalate],Class,estrogen receptor [1],W (weak estrogen receptor binders were defined as having log(RBA)<−3.0)
COc1ccc2[nH]cc(CCNC(C)=O)c2c1 [Melatonin],Class,estrogen receptor [1],W (weak estrogen receptor binders were defined as having log(RBA)<−3.0)
"O=C(O)COc1cc(Cl)c(Cl)cc1Cl [2,4,5-T]",Class,estrogen receptor [1],W (weak estrogen receptor binders were defined as having log(RBA)<−3.0)
"Oc1ccc(Cl)cc1Cc1cc(Cl)ccc1O [2,2′-Methylenebis (4-chlorophenol)]",log RBA,estrogen receptor [2],−2.45
same,Class,estrogen receptor [1],M (Medium estrogen receptor binders were defined as having log(RBA) in between)
Cc1cc(O)ccc1Cl [4-Chloro-3-methylphenol],log RBA,estrogen receptor [2],−3.38
C[C@]12CC[C@@H]3c4ccc(O)cc4CC[C@H]3[C@@H]1CC[C@@H]2O [17β-Estradiol],Class,estrogen receptor [1],S (strong estrogen receptor binders were defined as having log(RBA)>−0.25)
"O=C(c1ccc(O)cc1)c1ccc(O)cc1 [4,4′-Dihydroxybenzophenone]",log RBA,estrogen receptor [2],−2.46
same,Class,estrogen receptor [1],M (Medium estrogen receptor binders were defined as having log(RBA) in between)
"Clc1ccc(C(c2ccccc2Cl)C(Cl)(Cl)Cl)cc1 (centres unmarked) [DDT-o,p′]",log RBA,estrogen receptor [2],−2.85
same,Class,estrogen receptor [1],W (weak estrogen receptor binders were defined as having log(RBA)<−3.0)
"O=S(=O)(c1ccc(O)cc1)c1ccc(O)cc1 [4,4′-Sulfonylphenol]",log RBA,estrogen receptor [2],−3.07
same,Class,estrogen receptor [1],W (weak estrogen receptor binders were defined as having log(RBA)<−3.0)

# Source: patent US6898533B1, “Methods for predicting the biological, chemical, and physical properties of molecules from their spectral properties” (The United States of America as represented by the …, priority 2000, dated 2005)
